Read-outs that look alike come from different tables or passages of the source.
Test system: B-Raf mediated phosphorylation of MEK1
Experiment: Cellular assay of B-Raf mediated phosphorylation of MEK1 in co-transfected 3T3 cells
Assay type: cell-based
Details: Mus musculus, NIH3T3, 2 h, two hours exposure, anti-phospho-MEK1/2 immunoassay
Protocol: B-Raf mediated phosphorylation of MEK1 was measured in a cellular assay. Expression constructs for B-Raf and FLAG-tagged MEK1 (a B-raf substrate) were co-transfected in 3T3 cells and gene expression was induced using the GeneSwitch™ system for inducible mammalian expression (Invitrogen). Four hours following the induction of expression of B-Raf and MEK1, cells were exposed to the test compounds for two hours. The cells were then lysed, and then an immunoassay was performed using anti-phospho-MEK1/2 (Cell Signaling Technlogoies) to detect the percent inhibition of MEK1 phosphorylation.

[1] = 3T3 cells co-transfected with B-Raf and FLAG-tagged MEK1, read-out: Potency (IC50, inhibition of MEK1 phosphorylation)
[2] = read-out: Potency (IC50, inhibition of MEK1 phosphorylation), 3T3 cells co-transfected with B-Raf and FLAG-tagged MEK1

Row | IC50 [1] [µM] | IC50 [2] [µM] | SMILES
1 | < 6 |  | CCn1cc(-c2ccnc3[nH]ccc23)c(-c2cccc(NC(=O)Nc3c(F)cccc3F)c2)n1 [Example 6, N-(2,6-Difluorophenyl)-N-{3-[1-ethyl-4-(1H-pyrrolo[2,3-b]pyridin-4-yl)-1H-pyrazol-3-yl]phenyl}urea]
2 |  | < 6 | CCn1cc(-c2ccnc3[nH]ccc23)c(-c2cccc(NC(=O)NC3CCCCC3)c2)n1 [Example 8, N-Cyclohexyl-N-{3-[1-ethyl-4-(1H-pyrrolo[2,3-b]pyridin-4-yl)-1H-pyrazol-3-yl]phenyl}urea]
3 |  | < 6 | CCn1cc(-c2ccnc3[nH]ccc23)c(-c2cccc(NC(=O)NCc3ccccc3)c2)n1 [Example 9, N-{3-[1-Ethyl-4-(1H-pyrrolo[2,3-b]pyridin-4-yl)-1H-pyrazol-3-yl]phenyl}-N-(phenylmethyl)urea]
4 | > 6 |  | CCn1cc(-c2ccnc3[nH]cc(Cl)c23)c(-c2cccc(NC(=O)Nc3ccccc3)c2)n1 [Example 13, N-{3-[4-(3-Chloro-1H-pyrrolo[2,3-b]pyridin-4-yl)-1-ethyl-1H-pyrazol-3-yl]phenyl}-N-phenylurea]
5 | < 6 |  | CCn1cc(-c2ccnc3[nH]cc(Br)c23)c(-c2cccc(NC(=O)Nc3ccccc3)c2)n1 [Example 14, N-{3-[4-(3-Bromo-1H-pyrrolo[2,3-b]pyridin-4-yl)-1-ethyl-1H-pyrazol-3-yl]phenyl}-N-phenylurea]

— patent US20090018156A1, “Pyrrolo [2,3,B] Pyridine Derivatives Useful As RAF Kinase Inhibitors” (priority 2006, published 2009)
